Experimental data from patent publication EP4813989A1, “CRYSTAL, PHARMACEUTICAL COMPOSITION, PREPARATION METHOD THEREFOR, AND USE THEREOF” (TYK Medicines, Inc., priority 2023, dated 2025).

Assay: Pharmacokinetic test in SD rats
Assay type: in vivo
Settings: for AUC(0-inf) / AUC(0-t) / Cmax / MRT last / Tmax: rat, plasma, po; for AUC(0-inf) / AUC(0-t) / Cmax / MRT last / Tmax / Plasma concentration: 10 mg/kg; for Plasma concentration: 10 mg/kg p.o., listed as compound represented by formula I (amorphous form)
Protocol: Experimental animals: healthy adult SD rats, male, 6 in total, divided into two groups, with 3 rats per group, aged 6-8 weeks; and body weight approximately 200-300 g. The rats were fed in rat cages, and fasted (for at least 10 hours) with free access to water one day before the experiment. On the day of experiment, the rats were weighed and marked at the tail respectively. Blank blood samples were collected respectively before drug administration. The blood samples were collected via the tail vein. Drug administration method: intragastric gavage (p.o.): intragastric gavage with drug suspension; preparation of drug suspension: approximately 10 mg of test sample was accurately weighed, dissolved in 5% DMSO (calculated proportion), and vortexed with 10% solutol HS-15 and 85% saline to obtain a suspension with a concentration of 1.0 mg/mL; and the suspension was freshly prepared before use.
Sample collection: the rats were administered a single oral dose of 10mg/kg via intragastric gavage (p.o.). Timing was started immediately after the administration was completed, and blood samples were collected at 0.5, 1, 2, 4, 6, 8, 12 and 24 hours after administration. A volume of 0.1mL of whole blood was collected into EDTA-Na2 anticoagulant tubes, mixed by inverting 3-4 times, centrifuged at 10000 g for 5 minutes at 4°C to separate the plasma, and then the plasma was stored at -80 °C until testing. The blood samples were collected via the tail vein.
Sample preparation: 1) the samples were thawed, and 15 µL of unknown plasma samples before or after administration, standard series solutions, and single blank and double blank samples were respectively transferred into 1.5 mL centrifuge tubes. 2) 15 µL of protein precipitant (methanol) and 400 µL of internal standard solution (verapamil in methanol, approximately 10 ng/mL) were added to each sample sequentially, vortexed for 2 minutes, and then centrifuged at 4°C and 12000 rpm for 10 minutes. 3) The supernatant was collected for LC-MS/MS detection.
Analytical conditions: liquid chromatography conditions: liquid chromatography system: Shimadzu Nexera X2; chromatographic column: Agilent ZORBAX XDB-C18 3.5 (2.1 × 50 mm); column temperature: 35°C; mobile phase: A-5% acetonitrile (0.1% formic acid in water), B-95% acetonitrile (0.1% formic acid in water); injection volume: 3 µL; and
flow rate: 0.5 mL/min. Gradient elution was employed, and an elution program can be seen in the table below.
Mass spectrometry conditions: mass spectrometric analysis was carried out using an electrospray ionization (ESI) source in a positive ion mode with multiple reaction monitoring (MRM). The mass spectrometer ion source parameters and compound detection parameters can be seen in the table below.
PK parameter processing: pharmacokinetic (PK) parameters were calculated according to a plasma concentration from individual plasma concentration and corresponding sampling time data using Phoenix WinNonlin software with a non-compartmental model. (1) The PK parameters used for pharmacokinetic evaluation included: Cmax, AUC0-t, AUC0-∞, Tmax and t1/2.
(2) The parameters used for bioequivalence evaluation: Cmax, AUC0-t and AUC0-∞ were used for the bioequivalence evaluation.
Cmax: maximum plasma concentration measured within specified period, presented as measured value.
Tmax: time measured to reach maximum plasma concentration, presented as measured value. If the maximum value occurred at more than one time point, Tmax was defined as the first time point at which this value was observed.
AUC0-t: area under plasma concentration-time curve from 0 to last time point t.
AUC0-∞: area under plasma concentration-time curve from 0 to infinity. Ct was the last measured concentration, and λz was the terminal elimination rate constant. AUC0−∞ = AUC0−t + (Ct)/(λz)AUC0−∞ = AUC0−t + (Ct)/(λz) [formula]
t1/2: elimination or terminal half-life, estimated by ln2/λz.

[1] = Mean of rats No. 1-3, intragastric gavage at 10 mg/kg
[2] = rat No. 1, intragastric gavage at 10 mg/kg
[3] = rat No. 2, intragastric gavage at 10 mg/kg
[4] = rat No. 3, intragastric gavage at 10 mg/kg
[5] = rats, intragastric gavage 10 mg/kg, Mean

Compound: C[C@@H](Nc1ccn2ncc(C3=NOC(C)(C)N3)c2n1)c1cc(F)cc(F)c1F [amorphous form]
- HL_ [1]: 8.72 h
- HL_ [2]: 6.05 h
- HL_ [3]: 17.2 h
- HL_ [4]: 2.93 h
- AUC(0-inf) [1]: 1560 ng·h/mL
- AUC(0-t) [1]: 1080 ng·h/mL
- Cmax [1]: 151 ng/mL
- MRT last [1]: 7.55 h
- Tmax [1]: 6 h
- AUC(0-inf) [2]: 982 ng·h/mL
- AUC(0-t) [2]: 894 ng·h/mL
- Cmax [2]: 87.1 ng/mL
- MRT last [2]: 7.84 h
- Tmax [2]: 8 h
- AUC(0-inf) [3]: 3200 ng·h/mL
- AUC(0-t) [3]: 1910 ng·h/mL
- Cmax [3]: 307 ng/mL
- MRT last [3]: 9.26 h
- Tmax [3]: 4 h
- AUC(0-inf) [4]: 487 ng·h/mL
- AUC(0-t) [4]: 428 ng·h/mL
- Cmax [4]: 58.3 ng/mL
- MRT last [4]: 5.56 h
- Tmax [4]: 6 h
- AUC(0-t) [5]: 1080 ng·h/mL
- Cmax [5]: 151 ng/mL
- Plasma concentration (rats, 0.5 h, Mean): 41.0 ng/mL
- Plasma concentration (rats, 0.5 h, No. 1): 44.5 ng/mL
- Plasma concentration (rats, 0.5 h, No. 2): 49.0 ng/mL
- Plasma concentration (rats, 0.5 h, No. 3): 29.4 ng/mL
- Plasma concentration (rats, 1 h, Mean): 22.5 ng/mL
- Plasma concentration (rats, 1 h, No. 1): 20.8 ng/mL
- Plasma concentration (rats, 1 h, No. 2): 21.5 ng/mL
- Plasma concentration (rats, 1 h, No. 3): 25.3 ng/mL
- Plasma concentration (rats, 2 h, Mean): 56.2 ng/mL
- Plasma concentration (rats, 2 h, No. 1): 64.1 ng/mL
- Plasma concentration (rats, 2 h, No. 2): 71.2 ng/mL
- Plasma concentration (rats, 2 h, No. 3): 33.2 ng/mL
- Plasma concentration (rats, 4 h, Mean): 142 ng/mL
- Plasma concentration (rats, 4 h, No. 1): 71.7 ng/mL
- Plasma concentration (rats, 4 h, No. 3): 47.9 ng/mL
- Plasma concentration (rats, 6 h, Mean): 86.2 ng/mL
- Plasma concentration (rats, 6 h, No. 1): 72.4 ng/mL
- Plasma concentration (rats, 6 h, No. 2): 128 ng/mL
- Plasma concentration (rats, 6 h, No. 3): 58.3 ng/mL
- Plasma concentration (rats, 8 h, Mean): 68.7 ng/mL
- Plasma concentration (rats, 8 h, No. 1): 87.1 ng/mL
- Plasma concentration (rats, 8 h, No. 2): 84.3 ng/mL
- Plasma concentration (rats, 8 h, No. 3): 34.7 ng/mL
- Plasma concentration (rats, 12 h, Mean): 24.4 ng/mL
- Plasma concentration (rats, 12 h, No. 1): 18.6 ng/mL
- Plasma concentration (rats, 12 h, No. 2): 40.6 ng/mL
- Plasma concentration (rats, 12 h, No. 3): 14.0 ng/mL
- Plasma concentration (rats, 24 h, Mean): 31.2 ng/mL
- Plasma concentration (rats, 24 h, No. 1): 10.2 ng/mL
- Plasma concentration (rats, 24 h, No. 2): 52.2 ng/mL
